Results as given in patent publication US11839637B2, “Neuron activator” (Kinjirushi Co., Ltd., priority 2017, dated 2023).

Tests used:
Type in all cases: cell-based, rat
PC12 cells [1] = assay: Hydrogen peroxide toxicity resistance test, MTT (Experimental example 6); settings: for MTT assay in medium with hydrogen peroxide: hydrogen peroxide 100 μM, component alone or combination with 6-MSITC
Description: In Experimental example 6, resistance of PC12 cells against hydrogen peroxide was tested. The test method is the same as that of Experimental example 5, except that hydrogen peroxide was added to the differentiation medium B, instead of amyloid β in Experimental example 5 above. A concentration of hydrogen peroxide in the differentiation medium B was 100 μM.

PC12 cells [2] = assay: Dopamine production test of PC12 cells (Experimental example 1); settings: 72 hours; for dopamine-producing ability, as compared to a case without these components: any one component in the medium, NGF 50 ng/ml
Description: Dopamine production tests of PC12 cells, using various components, were carried out as follows.
(§1) Such passage was repeated at least three times.
(§2) Supernatants were removed.
(§3) Each sample is numbered 1 to 39.
A concentration of dopamine in each supernatant was measured. Measurement of dopamine concentration was carried out using ELIZA KIT (manufactured by ImmuSmol, Product No.: BA-E-5300) according to the specifications. A ratio of dopamine concentration in each supernatant was expressed as a percentage (%) of a control of which dopamine concentration in the supernatant is 1.
The same applies to FIGS. 2 to 5. In FIG. 1, τ means statistically significant. * means that synergistic effect was confirmed by combining two components. Synergistic effect herein means that use of two components in combination can produce more amount of dopamine than a sum of amounts of dopamine produced when each component is used alone.

PC12 cells [3] = assay: Toxicity test to PC12 cells using MTT reagent (Experimental example 2); settings: 72 hours, 6-MSITC and DHA 2.5-160 μM, curcumin 2.5-40 μM, isorhamnetin 0.02-10 μM
Description: In order to investigate toxicity of each component to PC12 cells, the PC12 cells were cultured in the same manner as in the above steps (1) to (4) of Experimental example 1, except for components added to the medium.
as §2

PC12 cells [4] = assay: Neurite extension test of PC12 cells (Experimental example 3); settings: 72 hours; for neurite extension effect, as compared to a case without these components: any one component in the medium, NGF 50 ng/ml
Description: Neurite extension tests of PC12 cells, using various components, were carried out as follows.
as §1, §2, §3
Supernatants were removed. Three microscopic images (bright field, ×10 images, three wells per well) of PC12 cells settled in each well were taken. The shape of the whole PC12 cells in the images was observed. A shown in FIG. 6, when PC12 cells undergo differentiation, a neurite 2 extends from a cell body 1. The total number of PC12 cells, and the number of cells having the neurite 2 with a length L2 were counted. The length L2 is a longer length than a longer diameter L1 of the cell body 1. The number of cells having the neurite with the length L2 was divided by the total number of cells to obtain an extension percentage of the PC12 cells. […] The extension percentage was expressed by an average value of all PC12 cells appearing in all images. […] The same applies to FIGS. 8 to 11. […] Synergistic effect herein means that use of two components in combination can increase the extension percentage as compared to a sum of extension percentages when each component is used alone.

PC12 cells [5] = assay: Toxicity test to PC12 cells using MTT reagent (Experimental example 4); settings: 72 hours, 6-MSITC and DHA 2.5-160 μM, curcumin 2.5-40 μM, isorhamnetin 2.5-20 μM
Description: In order to investigate toxicity of each component to PC12 cells, the PC12 cells were cultured in the same manner as in the above steps (1) to (4) of Experimental example 3, except for components added to the medium.
as §2

| Structure (SMILES) | MTT assay, as compared to the medium without hydrogen peroxide (control) (PC12 cells [1]; medium containing only hydrogen peroxide, 100 μM) | amount of dopamine production produced by the PC12 cells vs control (PC12 cells [2]; 0.02 μM added to the medium) | amount of dopamine production produced by the PC12 cells vs control (PC12 cells [2]; 0.1 μM added to the medium) | amount of dopamine production produced by the PC12 cells vs control (PC12 cells [2]; 0.5 μM added to the medium) | dopamine-producing ability, as compared to a case without these components (PC12 cells [2]) | MTT assay compared with control (not using the component) (PC12 cells [3]) | toxicity to PC12 cells (PC12 cells [3]; MTT) | extension of PC12 cells (extension percentage) (PC12 cells [4]; 0.02 μM added to the medium) | extension of PC12 cells (extension percentage) (PC12 cells [4]; 0.1 μM added to the medium) | extension of PC12 cells (extension percentage) (PC12 cells [4]; 0.5 μM added to the medium) | neurite extension effect, as compared to a case without these components (PC12 cells [4]) | MTT assay compared with control (not using the component) (PC12 cells [5]) | toxicity to PC12 cells (PC12 cells [5]; MTT) | MTT assay in medium with hydrogen peroxide (PC12 cells [1]) | amount of dopamine production produced by the PC12 cells vs control (PC12 cells [2]; 2.5 μM added to the medium) | extension of PC12 cells (extension percentage) (PC12 cells [4]; 2.5 μM added to the medium) |
| --- | --- | --- | --- | --- | --- | --- | --- | --- | --- | --- | --- | --- | --- | --- | --- | --- |
| OO [hydrogen peroxide, reference compound] | significantly decreased |  |  |  |  |  |  |  |  |  |  |  |  |  |  |  |
| COc1cc(-c2oc3cc(O)cc(O)c3c(=O)c2O)ccc1O [isorhamnetin, Isorhamnetin] |  | higher than the control | higher than the control | higher than the control | enhanced | higher than the case of not using them (control) | low | significant extension enhancement | significant extension enhancement | significant extension enhancement | enhanced | higher than the case of not using them (control) | low | a value without problem |  |  |
| COc1cc(/C=C/C(=O)CC(=O)/C=C/c2ccc(O)c(OC)c2)ccc1O [curcumin, Curcumin] |  |  | higher than the control |  | enhanced |  |  |  | significant extension enhancement | significant extension enhancement | enhanced |  |  | a value without problem | higher than the control | significant extension enhancement |
